Results: ChEMBL document CHEMBL1201862, “PubChem BioAssay data set” (2004)
Activity calls are given as the source filed them.

Key:
[1] = molecular target: Aspartyl aminopeptidase (Plasmodium falciparum 3D7, UniProt Q8I2J3)
[2] = molecular target: Procathepsin L (Homo sapiens, UniProt P07711)
[3] = molecular target: Aminopeptidase N (Plasmodium falciparum FcB1/Columbia, UniProt O96935); assay: malaria alanyl aminopeptidase activity blockers – biochemical, fluorogenic H-Leu-NHMec substrate, 1536-well (AID 1445); design: species or system Plasmodium falciparum 3D7, 3D7
[4] = molecular target: Acyl-homoserine lactone acylase PvdQ (Pseudomonas aeruginosa (strain LESB58), UniProt Q9I194); assay: PvdQ acylase enzyme activity blockers – biochemical, fluorescence, plate reader and imaging, cherry-picks, dose response (AID 493231)
[5] = molecular target: Cytochrome P450 2C9 (Homo sapiens, UniProt P11712); conditions: Potency
[6] = molecular target: Cytochrome P450 3A4 (Homo sapiens, UniProt P08684); conditions: Potency;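 further: confirmatory qHTS run detecting inhibitors and substrates of CYP3A4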
[7] = molecular target: T1, Alkaline phosphatase, tissue-nonspecific isozyme (Homo sapiens, UniProt P05186)
T1 sequence (P05186 whole entry): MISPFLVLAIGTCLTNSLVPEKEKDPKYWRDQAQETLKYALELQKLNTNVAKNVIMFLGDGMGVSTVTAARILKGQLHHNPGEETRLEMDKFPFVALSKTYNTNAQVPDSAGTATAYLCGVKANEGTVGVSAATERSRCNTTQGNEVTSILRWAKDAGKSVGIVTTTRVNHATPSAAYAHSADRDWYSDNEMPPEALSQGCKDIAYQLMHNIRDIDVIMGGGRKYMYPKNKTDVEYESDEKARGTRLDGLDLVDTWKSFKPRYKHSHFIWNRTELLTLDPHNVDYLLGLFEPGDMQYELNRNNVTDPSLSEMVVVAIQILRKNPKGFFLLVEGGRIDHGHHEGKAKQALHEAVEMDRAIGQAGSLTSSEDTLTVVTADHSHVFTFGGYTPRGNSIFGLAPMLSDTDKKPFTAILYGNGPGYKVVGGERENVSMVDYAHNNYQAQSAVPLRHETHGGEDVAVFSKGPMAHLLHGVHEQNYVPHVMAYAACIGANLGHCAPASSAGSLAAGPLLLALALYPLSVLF

[8] = A Cell Based Secondary Assay To Explore Cytotoxicity of Compounds that Sensitize Mycobacterium Tuberculosis to Beta-Lactam Antibiotics.; assay type: functional
[9] = tested on: H9c2; assay: cells; assay type: functional, cell-based; conditions: Rattus norvegicus, H9c2, Myocardium;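 further: confirmatory concentration-response retest of ultra-high-throughput screening hits for modulation of myocardial damage; cell death induced by hydrogen peroxide oxidative stress; compound pretreatment for 60 min then peroxide exposure for 2 h; potency is for protecting the cells against peroxide damage rather than for killing them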
[10] = molecular target: Transitional endoplasmic reticulum ATPase (Homo sapiens, UniProt P55072); assay: p97 ATPase inhibitors, dose response, biochemical (AID 1534)
[11] = molecular target: Transitional endoplasmic reticulum ATPase (Homo sapiens, UniProt P55072, C522A); assay: C522A mutant p97 ATPase inhibitors, dose response, counter-screen for p97 inhibitor project, biochemical, luminescence (AID 1544)
[12] = Counterscreen for IDE inhibitors: Luminescence-based cell-based high throughput dose response assay to identify compounds that are cytotoxic to HEK cells. [Related pubchem assays: 434962 (Primary screen (IDE inhibitors in singlicate)), 449730 (Counterscreen (Cytotoxicity in triplicate)), 435028 (Confirmation (IDE inhibitors in triplicate)) …; assay type: functional; conditions: HEK293
[13] = molecular target: T2, Insulin-degrading enzyme (Homo sapiens, UniProt P14735); assay: Dose Response: Fluorescence polarization-based cell-based high throughput dose response assay for inhibitors of insulin-degrading enzyme (IDE). [Related pubchem assays: 434962 (Primary screen (IDE inhibitors in singlicate)), 449730 (Counterscreen (Cytotoxicity in triplicate)), 435028 (Confirmation (IDE inhibitors in triplicate)), 434984 (Summary …; assay type: functional
T2 sequence (P14735 whole entry): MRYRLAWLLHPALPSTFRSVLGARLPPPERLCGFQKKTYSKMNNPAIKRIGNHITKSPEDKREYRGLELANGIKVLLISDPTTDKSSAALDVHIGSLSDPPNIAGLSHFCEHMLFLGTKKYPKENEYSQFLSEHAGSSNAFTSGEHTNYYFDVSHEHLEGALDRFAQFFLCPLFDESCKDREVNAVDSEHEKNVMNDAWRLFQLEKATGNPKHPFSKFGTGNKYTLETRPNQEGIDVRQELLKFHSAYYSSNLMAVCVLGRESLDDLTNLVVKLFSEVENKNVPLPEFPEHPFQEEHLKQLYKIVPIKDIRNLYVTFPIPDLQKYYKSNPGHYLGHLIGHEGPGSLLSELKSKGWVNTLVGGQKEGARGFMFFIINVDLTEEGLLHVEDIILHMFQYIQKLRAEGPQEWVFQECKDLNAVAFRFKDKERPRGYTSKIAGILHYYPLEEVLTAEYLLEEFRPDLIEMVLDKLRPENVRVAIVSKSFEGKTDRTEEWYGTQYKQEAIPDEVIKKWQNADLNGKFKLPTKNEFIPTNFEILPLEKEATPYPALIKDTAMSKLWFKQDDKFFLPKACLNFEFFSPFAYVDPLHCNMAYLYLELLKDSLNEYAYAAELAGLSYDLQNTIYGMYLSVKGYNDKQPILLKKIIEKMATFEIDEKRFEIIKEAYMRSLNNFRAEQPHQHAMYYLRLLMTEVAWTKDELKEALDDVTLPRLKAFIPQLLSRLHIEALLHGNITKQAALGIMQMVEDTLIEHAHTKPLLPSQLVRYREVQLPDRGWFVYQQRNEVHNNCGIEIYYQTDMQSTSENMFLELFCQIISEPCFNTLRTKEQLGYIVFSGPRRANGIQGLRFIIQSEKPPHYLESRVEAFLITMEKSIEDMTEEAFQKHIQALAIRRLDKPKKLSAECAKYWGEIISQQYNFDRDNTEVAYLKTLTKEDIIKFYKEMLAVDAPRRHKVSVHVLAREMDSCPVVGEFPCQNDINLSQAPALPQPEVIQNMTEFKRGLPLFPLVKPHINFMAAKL

Sequence of Cytochrome P450 2C9 (P11712 whole entry): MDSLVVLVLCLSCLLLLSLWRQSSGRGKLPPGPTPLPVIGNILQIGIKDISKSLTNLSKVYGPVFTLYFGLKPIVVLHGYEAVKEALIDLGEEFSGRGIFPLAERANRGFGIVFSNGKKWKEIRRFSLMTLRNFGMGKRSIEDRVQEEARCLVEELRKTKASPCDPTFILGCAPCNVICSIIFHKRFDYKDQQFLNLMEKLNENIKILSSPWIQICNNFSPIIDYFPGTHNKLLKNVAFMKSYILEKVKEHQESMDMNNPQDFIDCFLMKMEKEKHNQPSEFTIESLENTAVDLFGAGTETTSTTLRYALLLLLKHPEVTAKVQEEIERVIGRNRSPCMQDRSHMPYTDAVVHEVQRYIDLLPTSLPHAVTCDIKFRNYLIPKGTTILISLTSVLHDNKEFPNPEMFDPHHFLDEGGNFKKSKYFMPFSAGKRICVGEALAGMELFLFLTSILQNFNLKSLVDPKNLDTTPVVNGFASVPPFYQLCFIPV
Sequence of Cytochrome P450 3A4 (P08684 whole entry): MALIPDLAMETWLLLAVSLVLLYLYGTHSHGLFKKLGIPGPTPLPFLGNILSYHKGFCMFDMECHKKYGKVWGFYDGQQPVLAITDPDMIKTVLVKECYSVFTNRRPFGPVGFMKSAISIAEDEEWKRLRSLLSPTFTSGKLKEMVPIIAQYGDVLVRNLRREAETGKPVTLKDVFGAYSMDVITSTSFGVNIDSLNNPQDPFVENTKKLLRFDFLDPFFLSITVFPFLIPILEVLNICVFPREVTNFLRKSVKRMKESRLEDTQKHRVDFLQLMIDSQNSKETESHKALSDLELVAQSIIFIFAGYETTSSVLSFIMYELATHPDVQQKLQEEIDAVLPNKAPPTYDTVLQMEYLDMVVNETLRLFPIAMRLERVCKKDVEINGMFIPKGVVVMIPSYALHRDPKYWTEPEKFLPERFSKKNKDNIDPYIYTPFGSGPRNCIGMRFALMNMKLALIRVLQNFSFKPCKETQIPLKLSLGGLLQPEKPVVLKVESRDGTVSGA
Sequence of Acyl-homoserine lactone acylase PvdQ (Q9I194 24-193 limits assumed): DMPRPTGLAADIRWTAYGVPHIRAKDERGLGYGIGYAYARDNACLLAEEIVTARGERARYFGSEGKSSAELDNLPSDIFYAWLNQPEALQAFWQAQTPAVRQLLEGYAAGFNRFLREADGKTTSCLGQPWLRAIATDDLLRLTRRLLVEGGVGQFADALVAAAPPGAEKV
Sequence of Acyl-homoserine lactone acylase PvdQ (Q9I194 217-762 limits assumed): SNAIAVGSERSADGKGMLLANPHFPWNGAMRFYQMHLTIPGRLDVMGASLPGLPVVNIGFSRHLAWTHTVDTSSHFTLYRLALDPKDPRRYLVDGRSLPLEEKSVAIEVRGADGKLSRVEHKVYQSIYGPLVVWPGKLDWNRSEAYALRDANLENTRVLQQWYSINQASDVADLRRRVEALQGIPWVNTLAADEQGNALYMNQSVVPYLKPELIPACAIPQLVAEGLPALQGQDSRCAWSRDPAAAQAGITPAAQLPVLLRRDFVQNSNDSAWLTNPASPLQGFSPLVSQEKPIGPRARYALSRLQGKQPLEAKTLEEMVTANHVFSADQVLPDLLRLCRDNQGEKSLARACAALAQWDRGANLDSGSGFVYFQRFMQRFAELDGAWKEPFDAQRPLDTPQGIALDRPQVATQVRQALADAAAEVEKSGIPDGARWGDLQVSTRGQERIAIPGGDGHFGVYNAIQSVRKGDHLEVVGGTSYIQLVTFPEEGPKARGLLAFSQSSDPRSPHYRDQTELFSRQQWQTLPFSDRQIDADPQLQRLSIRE
Sequence of Transitional endoplasmic reticulum ATPase (Homo sapiens, UniProt P55072) (P55072 whole entry): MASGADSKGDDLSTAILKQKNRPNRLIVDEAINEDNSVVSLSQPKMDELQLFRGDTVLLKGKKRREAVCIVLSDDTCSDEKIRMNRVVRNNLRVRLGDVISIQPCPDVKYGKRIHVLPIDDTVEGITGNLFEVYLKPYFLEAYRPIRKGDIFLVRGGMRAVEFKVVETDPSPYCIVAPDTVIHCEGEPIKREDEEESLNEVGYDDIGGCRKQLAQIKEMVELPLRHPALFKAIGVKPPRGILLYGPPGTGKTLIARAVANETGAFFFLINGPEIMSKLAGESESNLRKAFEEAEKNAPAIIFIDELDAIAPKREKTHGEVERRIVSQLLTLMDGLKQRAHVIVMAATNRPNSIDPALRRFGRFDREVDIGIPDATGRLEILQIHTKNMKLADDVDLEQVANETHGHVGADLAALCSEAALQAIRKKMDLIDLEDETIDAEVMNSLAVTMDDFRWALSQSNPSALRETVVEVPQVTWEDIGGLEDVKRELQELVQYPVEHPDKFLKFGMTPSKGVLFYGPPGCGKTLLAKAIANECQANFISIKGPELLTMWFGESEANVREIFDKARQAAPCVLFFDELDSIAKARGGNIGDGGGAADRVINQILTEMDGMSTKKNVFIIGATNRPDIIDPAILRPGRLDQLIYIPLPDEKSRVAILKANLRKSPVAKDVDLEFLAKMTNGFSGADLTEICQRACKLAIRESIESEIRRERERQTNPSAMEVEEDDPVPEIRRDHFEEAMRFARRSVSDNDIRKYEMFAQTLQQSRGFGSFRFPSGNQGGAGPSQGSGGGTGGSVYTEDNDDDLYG
Sequence of Aminopeptidase N (O96935 whole entry): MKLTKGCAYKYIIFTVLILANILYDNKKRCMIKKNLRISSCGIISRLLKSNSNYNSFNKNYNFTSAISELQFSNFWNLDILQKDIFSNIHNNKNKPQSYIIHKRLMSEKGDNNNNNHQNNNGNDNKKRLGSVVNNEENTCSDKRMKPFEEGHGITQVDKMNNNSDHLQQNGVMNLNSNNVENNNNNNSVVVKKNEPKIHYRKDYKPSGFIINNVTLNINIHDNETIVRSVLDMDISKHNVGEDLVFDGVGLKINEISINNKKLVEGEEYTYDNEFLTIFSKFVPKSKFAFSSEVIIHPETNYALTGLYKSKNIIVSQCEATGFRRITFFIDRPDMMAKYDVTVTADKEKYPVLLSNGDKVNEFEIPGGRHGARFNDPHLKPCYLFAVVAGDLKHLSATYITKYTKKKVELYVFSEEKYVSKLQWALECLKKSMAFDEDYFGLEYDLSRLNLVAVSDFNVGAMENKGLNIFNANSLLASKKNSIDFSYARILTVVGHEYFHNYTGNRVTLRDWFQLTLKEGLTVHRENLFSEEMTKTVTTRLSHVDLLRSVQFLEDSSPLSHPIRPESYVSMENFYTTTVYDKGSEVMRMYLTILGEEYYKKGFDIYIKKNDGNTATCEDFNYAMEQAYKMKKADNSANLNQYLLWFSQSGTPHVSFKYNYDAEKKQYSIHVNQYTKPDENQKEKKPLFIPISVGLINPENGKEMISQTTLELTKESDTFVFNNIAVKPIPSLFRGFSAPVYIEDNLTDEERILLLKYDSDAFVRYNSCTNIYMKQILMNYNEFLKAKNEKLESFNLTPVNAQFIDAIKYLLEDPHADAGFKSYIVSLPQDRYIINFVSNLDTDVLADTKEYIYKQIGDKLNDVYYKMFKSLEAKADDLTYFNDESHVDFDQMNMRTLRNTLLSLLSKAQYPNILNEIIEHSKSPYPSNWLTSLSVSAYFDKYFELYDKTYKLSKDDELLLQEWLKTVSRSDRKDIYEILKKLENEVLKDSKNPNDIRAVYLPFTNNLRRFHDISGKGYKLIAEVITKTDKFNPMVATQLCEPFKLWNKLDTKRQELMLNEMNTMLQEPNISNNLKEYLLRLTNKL
Sequence of Aspartyl aminopeptidase (Q8I2J3 whole entry): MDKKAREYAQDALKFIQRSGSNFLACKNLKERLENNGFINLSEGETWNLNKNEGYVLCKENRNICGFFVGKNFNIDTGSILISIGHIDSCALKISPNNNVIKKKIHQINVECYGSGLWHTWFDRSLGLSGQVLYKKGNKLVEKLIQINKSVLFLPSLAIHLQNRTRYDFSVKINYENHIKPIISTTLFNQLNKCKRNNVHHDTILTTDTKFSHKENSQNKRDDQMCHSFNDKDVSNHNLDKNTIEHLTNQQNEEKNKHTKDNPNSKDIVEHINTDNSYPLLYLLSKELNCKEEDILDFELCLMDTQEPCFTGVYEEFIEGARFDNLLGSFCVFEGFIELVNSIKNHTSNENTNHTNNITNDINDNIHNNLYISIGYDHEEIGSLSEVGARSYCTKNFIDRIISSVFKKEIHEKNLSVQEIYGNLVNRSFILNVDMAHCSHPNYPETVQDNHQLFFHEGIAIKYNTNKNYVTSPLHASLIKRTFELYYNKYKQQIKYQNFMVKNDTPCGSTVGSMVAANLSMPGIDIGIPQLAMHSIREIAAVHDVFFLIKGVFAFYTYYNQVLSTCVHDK
Sequence of Transitional endoplasmic reticulum ATPase (Homo sapiens, UniProt P55072, C522A) (P55072 2-806 C522A limits assumed): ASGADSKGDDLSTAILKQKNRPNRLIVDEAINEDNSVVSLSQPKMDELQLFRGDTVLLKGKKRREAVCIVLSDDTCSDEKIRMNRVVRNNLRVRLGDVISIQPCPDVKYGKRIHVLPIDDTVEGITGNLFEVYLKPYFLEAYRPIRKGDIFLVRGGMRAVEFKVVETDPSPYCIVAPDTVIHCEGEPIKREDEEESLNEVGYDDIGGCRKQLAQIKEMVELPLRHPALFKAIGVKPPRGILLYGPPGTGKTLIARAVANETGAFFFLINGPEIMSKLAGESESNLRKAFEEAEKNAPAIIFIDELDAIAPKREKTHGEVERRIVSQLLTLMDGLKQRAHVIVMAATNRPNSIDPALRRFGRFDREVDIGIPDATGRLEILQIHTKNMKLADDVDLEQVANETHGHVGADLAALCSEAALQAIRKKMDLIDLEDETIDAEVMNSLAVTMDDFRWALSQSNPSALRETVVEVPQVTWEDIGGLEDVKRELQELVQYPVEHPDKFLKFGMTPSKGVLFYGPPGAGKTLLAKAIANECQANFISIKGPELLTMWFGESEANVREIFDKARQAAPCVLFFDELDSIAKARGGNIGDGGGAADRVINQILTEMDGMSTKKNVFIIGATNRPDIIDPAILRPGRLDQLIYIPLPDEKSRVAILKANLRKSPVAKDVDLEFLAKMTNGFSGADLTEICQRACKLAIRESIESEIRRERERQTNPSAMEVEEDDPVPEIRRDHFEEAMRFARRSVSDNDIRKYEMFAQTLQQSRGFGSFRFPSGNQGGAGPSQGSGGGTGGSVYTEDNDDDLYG

## CC(C)(C)c1ccc(O)c(/N=C/c2cc(Br)ccc2O)c1
[1]
  IC50: 0.807 µM (active)
[2]
  IC50: > 59.6 µM (not active)

## CC(C)CCNC(=O)CSc1nc2ccsc2c(=O)n1NC(=O)c1ccccc1
[3]
  IC50: 87.1 µM (active)

## N#CC(c1ccc(Cl)nn1)c1ccccc1Cl (stereo not drawn)
[4]
  AC50: 0.944 µM (active)

## COc1cc2c(cc1O)C[C@H]1c3c(cc(OC)c(O)c3-2)CCN1C [ISOBOLDINE]
[5]
  AC50: 25.1 µM (inconclusive)
[6]
  AC50: 20 µM (inconclusive)

## Cc1ccc(C)c(NC(=O)C(Sc2nc3ccccc3c(=O)n2CC(C)C)c2ccccc2)c1 (stereo not drawn)
[7]
  EC50: > 100 µM (not active)
[8]
  CC50: 21.3 µM (active)
[9]
  IC50: 36.3 µM (inactive)

## Fc1ccccc1-c1nc(NCc2ccccc2)c2ccccc2n1
[10]
  IC50: > 50 µM (not active)
[11]
  IC50: > 50 µM (not active)

## COC(=O)C1=C(C)N=c2s/c(=C/c3ccoc3)c(=O)n2C1c1ccccc1 (stereo not drawn)
[12]
  IC50: 16.3 µM (not active)
[13]
  IC50: > 2.07 µM (active)
